{"source": "patent US6214859A", "about": "“Ethylamine derivatives” (Fujimoto Brothers Co., Ltd., priority 1997, dated 2001)", "key": {"[1]": {"system": "rats reduced learning ability by tetrabenazine", "experiment": "Conditioned avoidance task in the shuttle box (tetrabenazine-treated rats)", "assay_type": "in vivo, rat", "details": "tetrabenazine 1 mg/kg s.c., significance and direction", "in_short": "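Male and female rats (200–220 g) were trained in a shuttle box (light/buzzer conditioned stimulus, 100 trials/day for 5 days). Tetrabenazine 1 mg/kg s.c. was given 1 h before testing, with compound at 1, 2, 2.5 or 5 mg/kg s.c. given together with tetrabenazine. CARs, EFs and IRs were counted automatically and analysed by multi-way ANOVA.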"}, "[2]": {"system": "dopamine release, tuberculum olfactorium", "experiment": "Release of biogenic amines from brain tissue: dopamine, tuberculum olfactorium", "assay_type": "in vivo, Wistar rats"}, "[3]": {"system": "dopamine release, substantia nigra", "experiment": "Release of biogenic amines from brain tissue: dopamine, substantia nigra", "assay_type": "in vivo, Wistar rats"}, "[4]": {"system": "dopamine release, striatum", "experiment": "Release of biogenic amines from brain tissue: dopamine, striatum", "assay_type": "in vivo, Wistar rats"}, "[5]": {"system": "noradrenaline release, locus coeruleus", "experiment": "Release of biogenic amines from brain tissue: noradrenaline, locus coeruleus", "assay_type": "in vivo, Wistar rats"}, "serotonin release, raphe": {"system": "serotonin release, raphe", "experiment": "Release of biogenic amines from brain tissue: serotonin, raphe", "assay_type": "in vivo, Wistar rats"}, "mice": {"system": "mice", "experiment": "Toxicity test in mice in the single administration", "assay_type": "in vivo, mouse", "details": "50 mg/kg s.c., two weeks", "description": "After the compounds of Examples 3, 25, 27 and 28 were administered subcutanously to mice, general symptoms of the mice were observed every day for two weeks."}}}
{"smiles": "CCCNC(CCC)Cc1ccc2ccccc2c1.Cl", "note": "(stereo not drawn) [Compound No. 3, 1-(2-Naphthyl)-2-propylaminopentane Hydrochloride]", "values": [{"measurement": "Escape Failures (EFs)", "setting": "[1]; 1 mg/kg s.c.", "value": "**** .dwnarw."}, {"measurement": "Condition Avoidance Reflex (CARs)", "setting": "[1]; 1 mg/kg s.c., Hydrochloride", "value": "**** .Arrow-up bold."}, {"measurement": "Condition Avoidance Reflex (CARs)", "setting": "[1]; 2 mg/kg s.c.", "value": "**** .Arrow-up bold."}, {"measurement": "Escape Failures (EFs)", "setting": "[1]; 2 mg/kg s.c.", "value": "**** .dwnarw."}, {"measurement": "Condition Avoidance Reflex (CARs)", "setting": "[1]; 2.5 mg/kg s.c.", "value": "**** .Arrow-up bold."}, {"measurement": "Escape Failures (EFs)", "setting": "[1]; 2.5 mg/kg s.c.", "value": "*** .dwnarw."}, {"measurement": "Intersignal Reactions (IRs)", "setting": "[1]; 2.5 mg/kg s.c.", "value": "* .dwnarw."}, {"measurement": "Condition Avoidance Reflex (CARs)", "setting": "[1]; 5 mg/kg s.c.", "value": "**** .Arrow-up bold."}, {"measurement": "Escape Failures (EFs)", "setting": "[1]; 5 mg/kg s.c.", "value": "**** .dwnarw."}, {"measurement": "Release of dopamine, tuberculum olfactorium", "setting": "[2]; 0.25 mg/kg s.c.", "value": "4.3 ± 0.09 nmol/g tissue, for 20 min"}, {"measurement": "Release of dopamine, tuberculum olfactorium", "setting": "[2]; 1.00 mg/kg s.c., Hydrochloride", "value": "5.2 ± 0.12 nmol/g tissue, for 20 min"}, {"measurement": "Release of dopamine, tuberculum olfactorium", "setting": "[2]; 5.00 mg/kg s.c.", "value": "5.1 ± 0.39 nmol/g tissue, for 20 min"}, {"measurement": "Release of dopamine, substantia nigra", "setting": "[3]; 0.25 mg/kg s.c.", "value": "4.9 ± 0.07 nmol/g tissue, for 20 min"}, {"measurement": "Release of dopamine, substantia nigra", "setting": "[3]; 1.00 mg/kg s.c., Hydrochloride", "value": "4.5 ± 0.07 nmol/g tissue, for 20 min"}, {"measurement": "Release of dopamine, substantia nigra", "setting": "[3]; 5.00 mg/kg s.c.", "value": "9.0 ± 0.50 nmol/g tissue, for 20 min"}, {"measurement": "Release of dopamine, striatum", "setting": "[4]; 0.25 mg/kg s.c.", "value": "3.4 ± 0.03 nmol/g tissue, for 20 min"}, {"measurement": "Release of dopamine, striatum", "setting": "[4]; 1.00 mg/kg s.c., Hydrochloride", "value": "3.9 ± 0.12 nmol/g tissue, for 20 min"}, {"measurement": "Release of dopamine, striatum", "setting": "[4]; 5.00 mg/kg s.c.", "value": "3.8 ± 0.04 nmol/g tissue, for 20 min"}, {"measurement": "Release of noradrenaline, locus coeruleus", "setting": "[5]; 0.25 mg/kg s.c.", "value": "4.4 ± 0.10 nmol/g tissue, for 20 min"}, {"measurement": "Release of noradrenaline, locus coeruleus", "setting": "[5]; 1.00 mg/kg s.c., Hydrochloride", "value": "2.6 ± 0.10 nmol/g tissue, for 20 min"}, {"measurement": "Release of noradrenaline, locus coeruleus", "setting": "[5]; 5.00 mg/kg s.c.", "value": "2.2 ± 0.11 nmol/g tissue, for 20 min"}, {"measurement": "Release of serotonin, raphe", "setting": "serotonin release, raphe; 0.25 mg/kg s.c.", "value": "0.958 ± 0.03 nmol/g tissue, for 20 min"}, {"measurement": "Release of serotonin, raphe", "setting": "serotonin release, raphe; 5.00 mg/kg s.c.", "value": "1.215 ± 0.14 nmol/g tissue, for 20 min"}, {"measurement": "survival", "setting": "mice", "value": "all the mice survived"}]}
